Source: US12415803B2, “Fused imidazopyridines as reversible inhibitors of Brutons Tyrosine Kinase (BTK)” (Merck Patent GmbH, priority 2018, dated 2025)
“And” between values parts separate entries of the source, which are not always exact repeats. Identical values can stand only once.

How the values were obtained:
Btk [1] = target: T1, Btk (Homo sapiens (Human), UniProt Q06187); test: Btk PBMC IC50 Cell Assay (anti-IgM-induced CD69 expression on B cells); type: cell-based; details: anti-IgM-induced CD69 expression on CD19 positive cells in human PBMCs;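 also: freshly isolated human PBMCs, IC50 from concentration-response of the share of CD19+ cells expressing CD69 after anti-IgM BCR stimulation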
Btk [2] = target: T1, Btk; test: Time Dependent Human Whole Blood IC50 Assay; type: cell-based; details: read-out: Assay C (IC50)
full-length human BTK = full-length human BTK (Homo sapiens (Human), UniProt Q06187); test: BTK IC50 Enzyme Assay (microfluidic off-chip mobility shift kinase assay); type: biochemical; details: Btk Enzymatic IC50 Assay, 90 min at 27 C;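 also: Read-out separates phosphorylated peptide product from substrate by their charge-to-mass difference, with IC50 fitted from log inhibitor concentration against percent enzyme activity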
full-length human BTK, sequence (Q06187 whole entry): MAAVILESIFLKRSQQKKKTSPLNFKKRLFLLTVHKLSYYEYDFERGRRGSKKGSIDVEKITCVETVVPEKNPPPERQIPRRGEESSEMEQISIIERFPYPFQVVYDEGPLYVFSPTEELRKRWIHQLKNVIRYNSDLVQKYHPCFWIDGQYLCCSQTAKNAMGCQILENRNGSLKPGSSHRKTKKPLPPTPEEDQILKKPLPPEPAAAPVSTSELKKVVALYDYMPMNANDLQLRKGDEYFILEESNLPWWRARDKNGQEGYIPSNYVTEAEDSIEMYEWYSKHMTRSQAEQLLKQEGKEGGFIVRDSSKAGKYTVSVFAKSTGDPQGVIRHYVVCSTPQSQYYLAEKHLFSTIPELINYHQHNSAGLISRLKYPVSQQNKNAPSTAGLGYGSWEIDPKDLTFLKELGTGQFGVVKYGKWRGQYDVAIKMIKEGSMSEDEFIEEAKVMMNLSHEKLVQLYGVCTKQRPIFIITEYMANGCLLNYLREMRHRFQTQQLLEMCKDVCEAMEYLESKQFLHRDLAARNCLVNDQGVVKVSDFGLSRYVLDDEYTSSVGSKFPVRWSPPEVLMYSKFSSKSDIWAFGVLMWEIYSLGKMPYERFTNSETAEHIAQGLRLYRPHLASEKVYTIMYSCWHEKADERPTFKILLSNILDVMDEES

T1 sequence (Q06187 whole entry): as above

| IC50 (Btk [1]) | IC50 (Btk [2]) | IC50 (full-length human BTK) | SMILES |
| --- | --- | --- | --- |
| 1 to 10 nM | 1 to 10 nM | < 1 nM | Cc1c(-c2nc3c(-c4ccc5c(c4)CCCC5NC(=O)c4noc(C(C)(C)C)n4)ccnc3[nH]2)cnn1C1CCOCC1 (stereo not drawn) [Compound 150, 5-tert-Butyl-[1,2,4]oxadiazole-3-carboxylic acid (6-{2-[5-methyl-1-(tetrahydro-pyran-4-yl)-1H-pyrazol-4-yl]-3H-imidazo[4,5-b]pyridin-7-yl}-1,2,3,4-tetrahydro-naphthalen-1-yl)-amide] |
| 1 to 10 nM | 10 to 100 nM | < 1 nM | Cc1nn(C)c(C)c1-c1nc2c(-c3ccc4c(c3)CCC[C@H]4NC(=O)c3nc(C(C)(C)C)no3)ccnc2[nH]1 [Compound 74, 3-tert-butyl-N-[(1R)-6-[2-(1,3,5-trimethyl-1H-pyrazol-4-yl)-3H-imidazo[4,5-b]pyridin-7-yl]-1,2,3,4-tetrahydronaphthalen-1-yl]-1,2,4-oxadiazole-5-carboxamide] |
| 1 to 10 nM | 1 to 10 nM | < 1 nM | Cc1nn(C)c(C)c1-c1nc2c(-c3ccc4c(c3)CCCC[C@H]4NC(=O)c3nc(C(C)(C)C)no3)ccnc2[nH]1 [Compound 142, 3-tert-Butyl-[1,2,4]oxadiazole-5-carboxylic acid {(R)-2-[2-(1,3,5-trimethyl-1H-pyrazol-4-yl)-3H-imidazo[4,5-b]pyridin-7-yl]-6,7,8,9-tetrahydro-5H-benzocyclohepten-5-yl}-amide] |
| 1 to 10 nM | 10 to 100 nM and 1 to 10 nM | < 1 nM | Cc1c(-c2nc3nccc(-c4ccc5c(c4)CCCC[C@H]5NC(=O)c4nnc(C(C)(C)C)o4)c3[nH]2)cnn1C1CCOCC1 [Compound 79, 5-tert-butyl-N-[(5R)-2-{2-[5-methyl-1-(oxan-4-yl)-1H-pyrazol-4-yl]-1H-imidazo[4,5-b]pyridin-7-yl}-6,7,8,9-tetrahydro-5H-benzo[7]annulen-5-yl]-1,3,4-oxadiazole-2-carboxamide] |
| 1 to 10 nM | 1 to 10 nM | < 1 nM | Cc1nn(C(C)C)cc1-c1nc2c(-c3ccc4c(c3)CCCCC4NC(=O)c3nc(C4(C)CC4)no3)ccnc2[nH]1 (stereo not drawn) [Compound 134, 3-(1-Methyl-cyclopropyl)-[1,2,4]oxadiazole-5-carboxylic acid {2-[2-(1-isopropyl-3-methyl-1H-pyrazol-4-yl)-3H-imidazo[4,5-b]pyridin-7-yl]-6,7,8,9-tetrahydro-5H-benzocyclohepten-5-yl}-amide] |
| 1 to 10 nM | 10 to 100 nM | < 1 nM | Cc1c(-c2nc3c(-c4ccc5c(c4)CCC[C@@H]5NC(=O)c4noc(C(C)(C)C)n4)ccnc3[nH]2)cnn1C(C)C [Compound 165, 5-tert-Butyl-[1,2,4]oxadiazole-3-carboxylic acid {(S)-6-[2-(1-isopropyl-5-methyl-1H-pyrazol-4-yl)-3H-imidazo[4,5-b]pyridin-7-yl]-1,2,3,4-tetrahydro-naphthalen-1-yl}-amide] |
| 1 to 10 nM | 10 to 100 nM | < 1 nM | Cc1nn(C)c(C)c1-c1nc2c(-c3ccc4c(c3)CCCCC4NC(=O)c3noc(C4(C)CC4)n3)ccnc2[nH]1 (stereo not drawn) [Compound 11, 5-(1-Methyl-cyclopropyl)-[1,2,4]oxadiazole-3-carboxylic acid {2-[2-(1,3,5-trimethyl-1H-pyrazol-4-yl)-3H-imidazo[4,5-b]pyridin-7-yl]-6,7,8,9-tetrahydro-5H-benzocyclohepten-5-yl}-amide] |
| 1 to 10 nM | 10 to 100 nM | 1 to 10 nM | Cc1nn(C)c(C)c1-c1nc2c(-c3ccc4c(c3)CCCCC4NC(=O)c3cc(C(C)(C)C)on3)ccnc2[nH]1 (stereo not drawn) [Compound 70] |
| 1 to 10 nM | 10 to 100 nM | < 1 nM | Cc1c(-c2nc3c(-c4ccc5c(c4)CCCC5NC(=O)c4noc(C(C)(C)C)n4)ccnc3[nH]2)cnn1C(C)C (stereo not drawn) [Compound 149, 5-tert-Butyl-[1,2,4]oxadiazole-3-carboxylic acid {6-[2-(1-isopropyl-5-methyl-1H-pyrazol-4-yl)-3H-imidazo[4,5-b]pyridin-7-yl]-1,2,3,4-tetrahydro-naphthalen-1-yl}-amide] |
